Measurements reported in PubChem BioAssay (NCI).
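Each compound was tested at five concentrations against cells in 96-well plates for 48 hours. TGI: concentration producing complete growth inhibition.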

Experiments:
Assay in all cases: growth of human tumour cells (NCI), 48 h
K-562 leukemia = system: K-562 leukemia
TK-10 renal = system: TK-10 renal
RXF-631 renal = system: RXF-631 renal
NCI/ADR-RES ovarian = system: NCI/ADR-RES ovarian
OVCAR-5 ovarian = system: OVCAR-5 ovarian
KM20L2 colon = system: KM20L2 colon
EKVX NSCLC = system: EKVX NSCLC
MCF7 breast = system: MCF7 breast
NCI-H522 lung = system: NCI-H522 lung
CCRF-CEM leukemia = system: CCRF-CEM leukemia
SNB-78 CNS = system: SNB-78 CNS
HCC-2998 colon = system: HCC-2998 colon
MDA-N = system: MDA-N
NCI-H460 lung = system: NCI-H460 lung
CAKI-1 renal = system: CAKI-1 renal
OVCAR-3 ovarian = system: OVCAR-3 ovarian
SNB-19 CNS = system: SNB-19 CNS
SK-MEL-28 melanoma = system: SK-MEL-28 melanoma
SK-OV-3 ovarian = system: SK-OV-3 ovarian
UACC-257 melanoma = system: UACC-257 melanoma
COLO 205 colon = system: COLO 205 colon
MDA-MB-231 breast = system: MDA-MB-231 breast
HL-60(TB) leukemia = system: HL-60(TB) leukemia
LOX IMVI melanoma = system: LOX IMVI melanoma
RXF 393 renal = system: RXF 393 renal
OVCAR-8 ovarian = system: OVCAR-8 ovarian
HCT-116 colon = system: HCT-116 colon
T-47D breast = system: T-47D breast
DU-145 prostate = system: DU-145 prostate
HCT-15 colon = system: HCT-15 colon
NCI-H23 lung = system: NCI-H23 lung
SNB-75 CNS = system: SNB-75 CNS
UACC-62 melanoma = system: UACC-62 melanoma
SR leukemia = system: SR leukemia
SK-MEL-2 melanoma = system: SK-MEL-2 melanoma
SF-295 CNS = system: SF-295 CNS
NCI-H226 lung = system: NCI-H226 lung
DMS 114 small cell lung = system: DMS 114 small cell lung
786-0 renal = system: 786-0 renal
HOP-18 NSCLC = system: HOP-18 NSCLC
PC-3 prostate = system: PC-3 prostate
KM12 colon = system: KM12 colon
SK-MEL-5 melanoma = system: SK-MEL-5 melanoma
HT29 colon = system: HT29 colon
HOP-62 NSCLC = system: HOP-62 NSCLC
A498 renal = system: A498 renal
HOP-92 NSCLC = system: HOP-92 NSCLC
SW-620 colon = system: SW-620 colon
HS 578T breast = system: HS 578T breast
UO-31 renal = system: UO-31 renal
M19-MEL melanoma = system: M19-MEL melanoma
RPMI-8226 leukemia = system: RPMI-8226 leukemia
SF-268 CNS = system: SF-268 CNS
MDA-MB-435 = system: MDA-MB-435
U251 CNS = system: U251 CNS
ACHN renal = system: ACHN renal
SN12C renal = system: SN12C renal
BT-549 breast = system: BT-549 breast
SF-539 CNS = system: SF-539 CNS
MOLT-4 leukemia = system: MOLT-4 leukemia
M14 melanoma = system: M14 melanoma
IGROV1 ovarian = system: IGROV1 ovarian
XF 498 CNS = system: XF 498 CNS
LXFL 529 NSCLC = system: LXFL 529 NSCLC
MALME-3M melanoma = system: MALME-3M melanoma
A549 NSCLC = system: A549 NSCLC
DLD-1 colon = system: DLD-1 colon
OVCAR-4 ovarian = system: OVCAR-4 ovarian
DMS 273 small cell lung = system: DMS 273 small cell lung

For `CC(=O)OCC1OC(n2cc(F)c(=O)[nH]c2=O)C(OC(C)=O)C1OC(C)=O` (configuration not stated), the TGI (K-562 leukemia) was > 100 µM, the TGI (TK-10 renal) was > 100 µM and the TGI (RXF-631 renal) was > 100 µM. The TGI (NCI/ADR-RES ovarian) was > 100 µM, the TGI (OVCAR-5 ovarian) was > 100 µM and the TGI (KM20L2 colon) was > 100 µM. The TGI (EKVX NSCLC) was > 100 µM, the TGI (MCF7 breast) was > 45.3 µM and the TGI (NCI-H522 lung) was > 95.5 µM. For the same molecule, the TGI (CCRF-CEM leukemia) was > 100 µM, the TGI (SNB-78 CNS) was > 100 µM and the TGI (HCC-2998 colon) was > 100 µM. The TGI (MDA-N) was > 56.2 µM, the TGI (NCI-H460 lung) was > 100 µM and the TGI (CAKI-1 renal) was > 100 µM. The TGI (OVCAR-3 ovarian) was 91.8 µM, the TGI (SNB-19 CNS) was > 100 µM and the TGI (SK-MEL-28 melanoma) was > 100 µM. The TGI (SK-OV-3 ovarian) was > 100 µM, the TGI (UACC-257 melanoma) was > 100 µM and the TGI (COLO 205 colon) was > 83.2 µM. The TGI (MDA-MB-231 breast) was > 56.2 µM, the TGI (HL-60(TB) leukemia) was > 100 µM and the TGI (LOX IMVI melanoma) was > 63.9 µM. For the same molecule, the TGI (RXF 393 renal) was 99.2 µM, the TGI (OVCAR-8 ovarian) was > 100 µM and the TGI (HCT-116 colon) was 71.8 µM. The TGI (T-47D breast) was > 100 µM, the TGI (DU-145 prostate) was > 100 µM and the TGI (HCT-15 colon) was > 100 µM. The TGI (NCI-H23 lung) was > 100 µM, the TGI (SNB-75 CNS) was > 100 µM and the TGI (UACC-62 melanoma) was > 100 µM. The TGI (SR leukemia) was > 78.5 µM, the TGI (SK-MEL-2 melanoma) was > 100 µM and the TGI (SF-295 CNS) was > 100 µM. The TGI (NCI-H226 lung) was > 100 µM, the TGI (DMS 114 small cell lung) was > 100 µM and the TGI (786-0 renal) was > 94.5 µM. For the same molecule, the TGI (HOP-18 NSCLC) was > 100 µM, the TGI (PC-3 prostate) was > 100 µM and the TGI (KM12 colon) was > 100 µM. The TGI (SK-MEL-5 melanoma) was > 100 µM, the TGI (HT29 colon) was > 100 µM and the TGI (HOP-62 NSCLC) was > 96.5 µM. For the same molecule, the TGI (A498 renal) was > 100 µM, the TGI (HOP-92 NSCLC) was > 55.8 µM and the TGI (SW-620 colon) was > 100 µM. The TGI (HS 578T breast) was > 100 µM, the TGI (UO-31 renal) was > 96.1 µM and the TGI (M19-MEL melanoma) was > 100 µM. For the same molecule, the TGI (RPMI-8226 leukemia) was > 100 µM, the TGI (SF-268 CNS) was > 100 µM and the TGI (MDA-MB-435) was > 100 µM. For the same molecule, the TGI (U251 CNS) was > 95.5 µM, the TGI (ACHN renal) was > 100 µM and the TGI (SN12C renal) was > 100 µM. The TGI (BT-549 breast) was > 100 µM, the TGI (SF-539 CNS) was 52.1 µM and the TGI (MOLT-4 leukemia) was > 77.7 µM. For the same molecule, the TGI (M14 melanoma) was > 100 µM, the TGI (IGROV1 ovarian) was > 100 µM and the TGI (XF 498 CNS) was > 100 µM. The TGI (LXFL 529 NSCLC) was > 100 µM, the TGI (MALME-3M melanoma) was > 100 µM and the TGI (A549 NSCLC) was > 100 µM. For the same molecule, the TGI (DLD-1 colon) was > 100 µM and the TGI (OVCAR-4 ovarian) was > 90.3 µM.

With `CCc1nc2ccccc2c(=O)n1/N=C(\N=Nc1ccc(Cl)cc1)c1ccc(N(C)C)cc1` the TGI (K-562 leukemia) was 79.3 µM, the TGI (TK-10 renal) was > 100 µM and the TGI (RXF-631 renal) was > 100 µM. For the same molecule, the TGI (KM20L2 colon) was 69.9 µM, the TGI (EKVX NSCLC) was > 100 µM and the TGI (NCI-H522 lung) was 66.9 µM. For the same molecule, the TGI (CCRF-CEM leukemia) was > 100 µM, the TGI (DMS 273 small cell lung) was > 100 µM and the TGI (NCI-H460 lung) was > 100 µM. The TGI (SK-MEL-28 melanoma) was > 100 µM, the TGI (SK-OV-3 ovarian) was 99.4 µM and the TGI (COLO 205 colon) was 73.5 µM. The TGI (HL-60(TB) leukemia) was 51.6 µM, the TGI (LOX IMVI melanoma) was > 100 µM and the TGI (RXF 393 renal) was > 100 µM. For the same molecule, the TGI (OVCAR-8 ovarian) was > 100 µM, the TGI (HCT-116 colon) was 73.6 µM and the TGI (HCT-15 colon) was > 100 µM. For the same molecule, the TGI (NCI-H23 lung) was 92.4 µM, the TGI (DMS 114 small cell lung) was 47 µM and the TGI (HOP-18 NSCLC) was > 100 µM. The TGI (SK-MEL-5 melanoma) was 64.6 µM, the TGI (HOP-62 NSCLC) was 50 µM and the TGI (A498 renal) was > 100 µM. The TGI (HOP-92 NSCLC) was 59 µM, the TGI (SW-620 colon) was > 100 µM and the TGI (UO-31 renal) was 60.1 µM. The TGI (RPMI-8226 leukemia) was 80.7 µM, the TGI (SF-268 CNS) was > 100 µM and the TGI (U251 CNS) was > 100 µM. The TGI (ACHN renal) was > 100 µM, the TGI (SN12C renal) was > 100 µM and the TGI (SF-539 CNS) was > 100 µM. The TGI (MOLT-4 leukemia) was 92.2 µM, the TGI (M14 melanoma) was > 100 µM and the TGI (XF 498 CNS) was 80.7 µM. For the same molecule, the TGI (LXFL 529 NSCLC) was > 100 µM, the TGI (A549 NSCLC) was > 100 µM and the TGI (DLD-1 colon) was > 100 µM.
